Data set [1] relates to H2009 cells. In words: Cell viability assay. The data set is classed as cell-based, Human. To be noted: for IC50: 10 min exposure followed by 120 h recovery in media.
The subject of the next data set is H460 cells. In words: Cell viability assay. In kind it is cell-based, Human. To be noted: H460.1 column; 10 min exposure followed by 120 h recovery in media.
The subject of data set [2] is H2009 cells. In words: Cell cycle analysis by PI DNA staining and flow cytometry. In kind it is cell-based, Human. To be noted: for effect on cell cycle: H2009 cells.
Another data set concerns H2009 xenograft. The data set is classed as in vivo, NOD/SCID mice. Conditions: 5 mg/kg based on paclitaxel; for tumor growth rate compared to saline: i.v. tail vein, days 18, 21, 24, 27, 30.
For data set [3] the following is noted: 5 mg/kg based on paclitaxel, 5 injections; data not shown.
For another data set, the system named is integrin αvβ6. To be noted: read-out: half-maximal binding affinity; tetramerized H2009.1 peptide; cited from earlier work.
Data set [4] can be described thus: Solubility of the peptide-paclitaxel conjugates. In kind it is physicochemical. To be noted: cold water; white powder.
For data set [5] the following is noted: PBS pH 7.4, 37° C, after 96 hours.
Data set [6] relates to H2009 cells (αvβ6-positive). In kind it is binding, Human. To be noted: fluorescein-labeled conjugate, 1 hour, flow cytometry.
Where [7] appears, read: 1 μM paclitaxel column, time not printed in table (24 h elsewhere in the source).

A word on the IC50: it is the concentration that gives 50% inhibition. A high value points to lower potency. In the case of `CC(=O)O[C@H]1C(=O)[C@@]2(C)[C@H]([C@H](OC(=O)c3ccccc3)[C@]3(O)C[C@H](OC(=O)[C@H](O)[C@@H](NC(=O)c4ccccc4)c4ccccc4)C(C)=C1C3(C)C)[C@]1(OC(C)=O)CO[C@@H]1C[C@@H]2O` [Paclitaxel, reference compound], in the data set on H2009 cells [1] (1 μM for 10 min, then recovery), the “effect on cell viability within the first 48 h” value is given as “rapid reduction of cell viability”. In the data set with H2009 cells [1], this compound registered an IC50 of 14.8 ± 3.3 nM. Also, the IC50 with H460 cells came to 23.6 ± 7.4 nM. In the data set with H2009 cells [2] (setting [7]), this compound gave a G2/M of 73.5, a Polyploid of 14 and an S of 4.1. The “effect on cell cycle” value with H2009 cells [2] (1 μM, at 24 h) is “G2/M cell cycle arrest was observed”. Further, in the data set on H2009 xenograft, the “tumor growth rate compared to saline” value is “slowed”. Also, in data set [3], the animal weights entry is given as “remained steady”.
Take `CC(C)C[C@H](NC(=O)[C@H](CCC(N)=O)NC(=O)[C@H](CCCNC(=N)N)NC(=O)[C@H](CC(C)C)NC(=O)[C@@H](NC(=O)[C@H](C)NC(=O)[C@H](CC(C)C)NC(=O)[C@H](CC(=O)O)NC(=O)CNC(=O)[C@@H](N)CCCNC(=N)N)[C@@H](C)O)C(=O)NCCOCCOCCOCCOCCOCCOCCOCCOCCOCCOCCOCCOCCC(=O)N[C@@H](CSC1CC(=O)N(CCC(=O)NCCCC[C@H](NC(=O)CCN2C(=O)CC(SC[C@H](NC(=O)CCOCCOCCOCCOCCOCCOCCOCCOCCOCCOCCOCCOCCNC(=O)[C@H](CC(C)C)NC(=O)[C@H](CCC(N)=O)NC(=O)[C@H](CCCNC(=N)N)NC(=O)[C@H](CC(C)C)NC(=O)[C@@H](NC(=O)[C@H](C)NC(=O)[C@H](CC(C)C)NC(=O)[C@H](CC(=O)O)NC(=O)CNC(=O)[C@@H](N)CCCNC(=N)N)[C@@H](C)O)C(N)=O)C2=O)C(=O)NCCCC[C@H](NC(=O)[C@H](CCCCNC(=O)CCN2C(=O)CC(SC[C@H](NC(=O)CCOCCOCCOCCOCCOCCOCCOCCOCCOCCOCCOCCOCCNC(=O)[C@H](CC(C)C)NC(=O)[C@H](CCC(N)=O)NC(=O)[C@H](CCCNC(=N)N)NC(=O)[C@H](CC(C)C)NC(=O)[C@@H](NC(=O)[C@H](C)NC(=O)[C@H](CC(C)C)NC(=O)[C@H](CC(=O)O)NC(=O)CNC(=O)[C@@H](N)CCCNC(=N)N)[C@@H](C)O)C(N)=O)C2=O)NC(=O)CCN2C(=O)CC(SC[C@H](NC(=O)CCOCCOCCOCCOCCOCCOCCOCCOCCOCCOCCOCCOCCNC(=O)[C@H](CC(C)C)NC(=O)[C@H](CCC(N)=O)NC(=O)[C@H](CCCNC(=N)N)NC(=O)[C@H](CC(C)C)NC(=O)[C@@H](NC(=O)[C@H](C)NC(=O)[C@H](CC(C)C)NC(=O)[C@H](CC(=O)O)NC(=O)CNC(=O)[C@@H](N)CCCNC(=N)N)[C@@H](C)O)C(N)=O)C2=O)C(=O)N[C@@H](CS)C(=O)NCCC(=O)O)C1=O)C(N)=O` (stereo partly drawn) [compound 2]: the EC50 in the data set on integrin αvβ6 was 0.05 nM.
With `CC(=O)O[C@H]1C(=O)[C@@]2(C)[C@H]([C@H](OC(=O)c3ccccc3)[C@]3(O)C[C@H](OC(=O)[C@H](OC(=O)CCN4C(=O)CC(SC[C@H](NC(=O)[C@H](CCCCNC(=O)[C@H](CCCCNC(=O)CCN5C(=O)CC(SC[C@H](NC(=O)CCOCCOCCOCCOCCOCCOCCOCCOCCOCCOCCOCCOCCNC(=O)[C@H](CC(C)C)NC(=O)[C@H](CCC(N)=O)NC(=O)[C@H](CCCNC(=N)N)NC(=O)[C@H](CC(C)C)NC(=O)[C@@H](NC(=O)[C@H](C)NC(=O)[C@H](CC(C)C)NC(=O)[C@H](CC(=O)O)NC(=O)CNC(=O)[C@@H](N)CCCNC(=N)N)[C@@H](C)O)C(N)=O)C5=O)NC(=O)CCN5C(=O)CC(SC[C@H](NC(=O)CCOCCOCCOCCOCCOCCOCCOCCOCCOCCOCCOCCOCCNC(=O)[C@H](CC(C)C)NC(=O)[C@H](CCC(N)=O)NC(=O)[C@H](CCCNC(=N)N)NC(=O)[C@H](CC(C)C)NC(=O)[C@@H](NC(=O)[C@H](C)NC(=O)[C@H](CC(C)C)NC(=O)[C@H](CC(=O)O)NC(=O)CNC(=O)[C@@H](N)CCCNC(=N)N)[C@@H](C)O)C(N)=O)C5=O)NC(=O)[C@H](CCCCNC(=O)CCN5C(=O)CC(SC[C@H](NC(=O)CCOCCOCCOCCOCCOCCOCCOCCOCCOCCOCCOCCOCCNC(=O)[C@H](CC(C)C)NC(=O)[C@H](CCC(N)=O)NC(=O)[C@H](CCCNC(=N)N)NC(=O)[C@H](CC(C)C)NC(=O)[C@@H](NC(=O)[C@H](C)NC(=O)[C@H](CC(C)C)NC(=O)[C@H](CC(=O)O)NC(=O)CNC(=O)[C@@H](N)CCCNC(=N)N)[C@@H](C)O)C(N)=O)C5=O)NC(=O)CCN5C(=O)CC(SC[C@H](NC(=O)CCOCCOCCOCCOCCOCCOCCOCCOCCOCCOCCOCCOCCNC(=O)[C@H](CC(C)C)NC(=O)[C@H](CCC(N)=O)NC(=O)[C@H](CCCNC(=N)N)NC(=O)[C@H](CC(C)C)NC(=O)[C@@H](NC(=O)[C@H](C)NC(=O)[C@H](CC(C)C)NC(=O)[C@H](CC(=O)O)NC(=O)CNC(=O)[C@@H](N)CCCNC(=N)N)[C@@H](C)O)C(N)=O)C5=O)C(=O)NCCC(=O)O)C4=O)[C@@H](NC(=O)c4ccccc4)c4ccccc4)C(C)=C1C3(C)C)[C@]1(OC(C)=O)CO[C@@H]1C[C@@H]2O` (stereo partly drawn) [compound 3], the solubility entry in [4] is reported as “soluble in cold water”. Further, the “time at which reduction of cell viability begins” value with H2009 cells [1] (1 μM for 10 min, then recovery) worked out at 72 h. Also, in the data set on H460 cells, the IC50 entry is “Not Reached ^b”. Also, in the data set on H2009 cells [2] (1 μM, 24 h), the G1 is recorded as 44.9, the G2/M was 39.0, the Polyploid worked out at 8.0 and the S is listed as 8.1. In the data set on H2009 cells [2] (1 μM, 48 h), this compound came in with a G1 of 11.4, a G2/M of 57.1, a Polyploid of 26.9 and an S of 4.5. For the same compound, in the data set on H2009 cells [2] (1 μM, at 48 h), the “increase in number of cells in G2/M” value is listed as ~ 2 fold and the “increase in polyploid cells” value is recorded as 3 fold. Moreover, in the data set on H2009 cells [2] (5 μM, 24 h), the G1 amounted to 35.8, the G2/M is recorded as 45.8, the Polyploid stood at 11.7 and the S came to 6.7. In the data set on H2009 cells [2] (5 μM, 48 h), this compound came in with a G1 of 23.9, a G2/M of 53.9, a Polyploid of 23.6 and an S of 8.5. Moreover, the “effect on cell cycle” value in the data set on H2009 cells [2] (1 μM, at 24 h) was “the cell cycle remains unperturbed”. Besides, the “more G2/M arrest at increased conjugate concentration” value with H2009 cells [2] (increased concentration (5 μM in Table II), at 24 h) is “Approximately 50%”. In the data set with H2009 xenograft, the “delay of effect on tumor growth relative to free drug” value stood at 7 days and the “tumor growth rate compared to saline” value is “reduced the rate of tumor growth compared to saline”. In addition, in data set [5], the paclitaxel released result is on record as “minimal paclitaxel was released”. In addition, the “increase of paclitaxel release with esterase versus PBS” value in the data set on porcine esterase (esterase in PBS vs PBS) came out at 7 fold. Also, the paclitaxel released in the data set with porcine esterase (porcine esterase (18u/mL) in PBS, 37° C, by 48 h) worked out at 34.1%.
`CC(=O)O[C@H]1C(=O)[C@@]2(C)[C@H]([C@H](OC(=O)c3ccccc3)[C@]3(O)C[C@H](OC(=O)[C@H](OC(=O)CCN4C(=O)CC(SC[C@H](NC(=O)[C@H](CCCCNC(=O)[C@H](CCCCNC(=O)CCN5C(=O)CC(SC[C@H](NC(=O)CCOCCOCCOCCOCCOCCOCCOCCOCCOCCOCCOCCOCCNC(=O)[C@H](CCCNC(=N)N)NC(=O)[C@H](CC(C)C)NC(=O)[C@@H](NC(=O)CNC(=O)[C@H](CCC(N)=O)NC(=O)[C@H](CC(C)C)NC(=O)[C@H](CCCNC(=N)N)NC(=O)[C@H](CC(C)C)NC(=O)[C@H](C)NC(=O)[C@@H](N)CC(=O)O)[C@@H](C)O)C(N)=O)C5=O)NC(=O)CCN5C(=O)CC(SC[C@H](NC(=O)CCOCCOCCOCCOCCOCCOCCOCCOCCOCCOCCOCCOCCNC(=O)[C@H](CCCNC(=N)N)NC(=O)[C@H](CC(C)C)NC(=O)[C@@H](NC(=O)CNC(=O)[C@H](CCC(N)=O)NC(=O)[C@H](CC(C)C)NC(=O)[C@H](CCCNC(=N)N)NC(=O)[C@H](CC(C)C)NC(=O)[C@H](C)NC(=O)[C@@H](N)CC(=O)O)[C@@H](C)O)C(N)=O)C5=O)NC(=O)[C@H](CCCCNC(=O)CCN5C(=O)CC(SC[C@H](NC(=O)CCOCCOCCOCCOCCOCCOCCOCCOCCOCCOCCOCCOCCNC(=O)[C@H](CCCNC(=N)N)NC(=O)[C@H](CC(C)C)NC(=O)[C@@H](NC(=O)CNC(=O)[C@H](CCC(N)=O)NC(=O)[C@H](CC(C)C)NC(=O)[C@H](CCCNC(=N)N)NC(=O)[C@H](CC(C)C)NC(=O)[C@H](C)NC(=O)[C@@H](N)CC(=O)O)[C@@H](C)O)C(N)=O)C5=O)NC(=O)CCN5C(=O)CC(SC[C@H](NC(=O)CCOCCOCCOCCOCCOCCOCCOCCOCCOCCOCCOCCOCCNC(=O)[C@H](CCCNC(=N)N)NC(=O)[C@H](CC(C)C)NC(=O)[C@@H](NC(=O)CNC(=O)[C@H](CCC(N)=O)NC(=O)[C@H](CC(C)C)NC(=O)[C@H](CCCNC(=N)N)NC(=O)[C@H](CC(C)C)NC(=O)[C@H](C)NC(=O)[C@@H](N)CC(=O)O)[C@@H](C)O)C(N)=O)C5=O)C(=O)NCCC(=O)O)C4=O)[C@@H](NC(=O)c4ccccc4)c4ccccc4)C(C)=C1C3(C)C)[C@]1(OC(C)=O)CO[C@@H]1C[C@@H]2O` (stereo partly drawn) [scrambled peptide-paclitaxel conjugate]: in data set [4], the solubility result is “soluble in cold water”. The “binding to H2009 cells” value in data set [6] is reported as “no binding was observed”. Further, the IC50 entry in the data set on H2009 cells [1] and in the data set on H460 cells was “Not Reached ^b” each time.

Source of the values: article PMC3195361 (Bioorganic & medicinal chemistry, 2011).
